# Laboratory results taken from patent US20250115563A1, “MODULATORS OF THE INTEGRATED STRESS PATHWAY” (Calico Life Sciences LLC, priority 2017, published 2025).
# Test system: HEK293T cells carrying the ATF4 luciferase reporter
# Assay: ATF4-Luc assay (in vitro model of VWMD)
# Format: cell-based
# Settings: Homo sapiens, HEK-293T; HEK293T cells with ATF4 5'-UTR firefly luciferase reporter; 1 μg/mL tunicamycin; 7 hours; One Glo luminescence
# Experimental: In order to test exemplary compounds of the invention in a cellular context, a stable VWMD cell line was first constructed. The ATF4 reporter was prepared by fusing the human full-length ATF4 5′-UTR (NCBI Accession No. BC022088.2) in front of the firefly luciferase (FLuc) coding sequence lacking the initiator methionine as described in Sidrauski et al (eLife 2013). The construct was used to produce recombinant retroviruses using standard methods and the resulting viral supernatant was used to transduce HEK293T cells, which were then subsequently selected with puromycin to generate a stable cell line.
# HEK293T cells carrying the ATF4 luciferase reporter were plated on polylysine coated 384-well plates (Greiner Bio-one) at 30,000 cells per well. Cells were treated the next day with 1 μg/mL tunicamycin and 200 nM of a compound of Formula (I) for 7 hours. Luminescence was measured using One Glo (Promega) as specified by the manufacturer. Cells were maintained in DMEM with L-glutamine supplemented with 10% heat-inactivated FBS (Gibco) and Antibiotic-Antimycotic solution (Gibco).
# Table 2 below summarizes the EC50 data obtained using the ATF4-Luc assay for exemplary compounds of the invention.
row,Compound,EC50 [nM]
1,"O=C(COc1ccc(Cl)c(F)c1)NC12CCC(c3nnc(Oc4ccc(Cl)c(F)c4)o3)(CC1)C(O)C2 (stereo not drawn) [Compound 170, 2-(4-chloro-3-fluorophenoxy)-N-{4-[5-(4-chloro-3-fluorophenoxy)-1,3,4-oxadiazol-2-yl]-3-hydroxybicyclo[2.2.2]octan-1-yl}acetamide]",< 50
2,"O=C(COc1ccc(Cl)c(F)c1)NC12CCC(c3nnc(Oc4ccc(Cl)c(F)c4)o3)(CC1)[C@H](O)C2 [Compound 171, 2-(4-chloro-3-fluorophenoxy)-N-{(3R)-4-[5-(4-chloro-3-fluorophenoxy)-1,3,4-oxadiazol-2-yl]-3-hydroxybicyclo[2.2.2]octan-1-yl}acetamide]",< 50
3,"O=C(COc1ccc(Cl)c(F)c1)NC12CCC(c3nnc(Oc4ccc(Cl)c(F)c4)o3)(CC1)[C@@H](O)C2 [Compound 172, 2-(4-chloro-3-fluorophenoxy)-N-{(3S)-4-[5-(4-chloro-3-fluorophenoxy)-1,3,4-oxadiazol-2-yl]-3-hydroxybicyclo[2.2.2]octan-1-yl}acetamide]",< 50
